Assay results from US20100216761A1, “NOVEL AZETIDINONES USEFUL AS INHIBITORS OF ELASTASE” (priority 2007, published 2010).

Assays:
[1] = target: T1, Human Leukocyte Elastase (HLE) (Homo sapiens, UniProt P08246); experiment: HLE time-dependent inactivation assay, purified elastase; type: biochemical; conditions: purified elastase 3 nM; inhibitor 26.5 nM; substrate 1 mM
T1 construct: The PMN lysates were prepared by isolating human neutrophils from whole blood; from tissue; host or cells: human neutrophils (PMN) isolated from whole blood, lysed by sonication in PBS
T1 sequence (P08246 30-267): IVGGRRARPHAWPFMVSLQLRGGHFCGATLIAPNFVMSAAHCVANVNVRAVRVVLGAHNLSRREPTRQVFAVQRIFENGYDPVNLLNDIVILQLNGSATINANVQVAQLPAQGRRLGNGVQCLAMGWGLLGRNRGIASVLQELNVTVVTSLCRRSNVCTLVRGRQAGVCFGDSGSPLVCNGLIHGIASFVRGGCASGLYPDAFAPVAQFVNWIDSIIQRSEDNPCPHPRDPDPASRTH
Protocol: (§1) As exemplified in Table 1, the Examples 1-6 of this application were determined to be potent, mechanism-based inactivators of Human Leukocyte Elastase (HLE) in two different in vitro time-dependent incubation assays. The two assays are described at the end of this Biological Data Section in Note 1. See the literature references in Note 2 for a discussion of the mechanism for this type of beta-lactam inactivation of HLE. Two sources of enzyme were used; either purified elastase or crude extracts of human polymorphonuclear leukocytes (PMN) containing elastase activity. […] For the compound of Example 1, the results were 638,000 M^−1 sec^−1 (average of n=3) and 809,000 M^−1 sec^−1 (n=4), respectively, and for Example 3, 804,000 M^−1 sec^−1 (average of n=4) and 952,000 M^−1 sec^−1 (n=5). […] Note that in this assay, head-to-head comparisons are particularly valuable.
(§2) Note 1: Enzyme Assays for the Inhibition of Human Polymorphonuclear Leukocyte Elastase Via Hydrolysis of N-Methyoxysuccinyl-alanyl-alanyl-prolylalanine-p-nitroanilide Reagent.
(§3) Prepare substrate by first dissolving in DMSO to 30 mg/ml (50 mM). Further dilute the substrate to 10 mM and add 25 μl to a final volume of 250 μl for a final concentration of 1 mM in the assay.
(§4) Prepare the enzyme in TES Buffer (0.045M TES (N-tris[hydroxymethyl]methyl-2-mino-ethanesulfonic acid), 0.45 M NaCl, pH 7.5.). Two sources of enzyme were used; either crude extracts of human polymorphonuclear leukocytes (PMN) containing elastase activity or purified elastase. The PMN lysates were prepared by isolating human neutrophils from whole blood after dextran sedimentation, ficoll density separation and red blood cell lysis. The neutrophils were lysed in PBS with sonciation and the concentration of active enzyme was determined by utilizing a standard curve of purified enzyme. For the purified elastase, the enzyme was resuspended at 10 mg/ml (˜340 μM) in 0.02M NaOAc, 50% glycerol. For both the PMN lysate and purified enzyme, a further dilution of enzyme was made to 30 nM and 25 μl was added to a final volume of 250 μl. The final concentration of enzyme in the assay was 3 nM.
(§5) The inhibitors to be tested were dissolved in DMSO at 10 mM. Directly before use, the inhibitors were further diluted into TES Buffer to 265 nM and […] was added to a final volume of 250 μl. The final concentration of inhibitor in the assay was 26.5 nM.
(§6) In a 96-well plate (flat bottom, polystyrene) 175 μl TES Buffer, 25 μl substrate, 25 μl inhibitor and 25 μl enzyme were added. After thoroughly mixing, the plate was then read in a spectrophotometer at 410 nm for 30 minutes counting every 10 seconds. Results were expressed as Kinact/Ki which is the second order rate constant in per mole per second for inactivation of the enzyme.

[2] = target: T1, Human Leukocyte Elastase (HLE); experiment: HLE time-dependent inactivation assay, PMN cell lysate source of HLE; type: biochemical; conditions: 3 nM, inhibitor 26.5 nM, substrate 1 mM
Protocol: as §1, §2, §3, §4, §5, §6

[3] = Human liver microsome stability (Assays #1-#4); type: in vitro ADME; conditions: Assay #1, substrate 1 μM, protein 0.1 mg/mL, 37° C.; for half-life at 1 μM: human, liver microsomes
Protocol: The results for Examples 1 and 3 were t112=87 and 32 minutes with 78% and 60% remaining after 30 minutes, respectively, compared to shorter half-lives and lesser amounts left for Examples 2 and 4-6 (see Note 6 for conditions).
Under similar in vitro human liver microsome preparation stability assay conditions at 37° C. for 30 or 60 minutes in a separate head-to-head experiments (Assay #2 and #3) (see Note 6 for conditions) with Examples 1 and 3 and the comparator Compound #290 from U.S. Pat. No. 5,591,737, the amounts left after the 30 minute incubation (with […] microsome protein vs 0.1 mg/mL for Assay #3) were 67, 99 and 79% and for the 60 minute incubation were 94, 73 and 77%, respectively. Similarly, in a third repeat assay (Assay #4 with—NADPH controls) (see Note 6 for conditions), 90 and 72% were remaining for Example 1 and the comparator compound, respectively. […]
Note 6: Human Liver Microsome Assay # 1-3 conditions. • Assay experiment #1: Substrate concentration=1 μM; Protein concentration=0.1 mg/mL; incubation time=30 minutes at 37° C. • Assay experiment #2: Substrate concentration=1 μM; Protein concentration 0.1 mg/mL; incubation time=30 minutes at 37° C. • Assay experiment #3: Substrate concentration=1 μM; Protein concentration=0.1 mg/mL; incubation time=60 minutes at 37° C. • Assay experiment #4: Substrate concentration=1 μM; Protein concentration=1.0 mg/mL; incubation time=60 minutes at 37° C.

Row | SMILES | kinact/KI [1] [M⁻¹ s⁻¹] | kinact/KI [2] [M⁻¹ s⁻¹] | % Left @ 30 min [3] [%] | half-life at 1 μM [3] [min]
1 | CCC[C@@H](NC(=O)N1C(=O)C(CC)(CC)[C@@H]1Oc1ccc(C(=O)N(C)CCN(C)C)cc1)c1ccc(C(F)(F)F)cc1 [Example 4, 2-(S)-[4-(((2-(Dimethylamino)ethyl)methylamino)carbonyl)phenoxy]-3,3-diethyl-N-[1-(R)-(4-(trifluoromethyl)phenyl)butyl]-4-oxo-1-azetidinecarboxamide] | 290000 | 427000 | 51 | 25
2 | CCC[C@@H](NC(=O)N1C(=O)C(CC)(CC)[C@@H]1Oc1ccc(C(=O)N(CC)CCN(CC)CC)cc1)c1ccc(C(F)(F)F)cc1 [Example 5, 2-(S)-[4-(((2-(Diethylamino)ethyl)ethylamino)carbonyl)phenoxy]-3,3-diethyl-N-[1-(R)-(4-(trifluoromethyl)phenyl)butyl]-4-oxo-1-azetidinecarboxamide] |  | 375000 | 31 | 30
